From patent US20080045500A1, “Nerve Regeneration Stimulator” (priority 2004, published 2008)
Entries after “also recorded” stand apart in the source; their conditions may differ.

Key:
[1] = tested on: neural stem cells (BrdU positive cells) in hippocampal dentate gyrus; assay: Nerve regeneration in mouse hippocampal dentate gyrus: BrdU labelling, immunohistochemical count and GCL volume; assay type: in vivo
Description: C57BL/6 male SPF mice (8-week-old at the beginning of the experiments) purchased from Japan SLC, Inc. were used. Animals were subjected to experiments after acclimating in a breeding room under control at a temperature of 23±1° C. and illumination of 12 hours (7:00 to 19:00) for 5 days or longer. During breeding, animals had free access to solid food MF (Oriental Yeast Co., Ltd.) and water (tap water).
BrdU (Sigma) for labeling neural stem cells was used by dissolving in a phosphate buffer solution (PBS: Sigma) containing 0.007N HCl at a concentration of 5 mg/mL (Yoshimura et al., PNAS, 98, 5874-5879, 2001, Yoshimura et al., J. Clin. Invest., 112, 1202-1210, 2003). BrdU was intraperitoneally administered at a dose of 50 mg/kg (0.1 ml BrdU solution/10 g weight) for three times (every 4 hours).
Injectable distilled water was orally administered to animals of the vehicle control group.
The removed brain was sliced into coronal sections in a frozen state with a thickness of 40 μm using a sliding microtome (Leica, Model SM2000R, Nussloch). The sliced brain tissues were successively placed in 10 wells of a culture plate with a PBS solution containing sodium azide such that 10 sections were placed per well.
Immunostaining of the brain tissues were carried out by flotation (Yoshimura et al., PNAS, 98, 5874-5879, 2001, Yoshimura et al., J. Clin. Invest., 112, 1202-1210, 2003). Peroxidase method (ABC system, Vector Laboratories Inc.) was used for immunohistochemical detection of BrdU (Yoshimura et al., PNAS, 98, 5874-5879, 2001, Yoshimura et al., J. Clin. Invest., 112, 1202-1210, 2003). As a primary antibody to BrdU, rat anti-BrdU antibody (400-fold-diluted, Accurate Chemical & Scientific Corporation) was used. As a secondary antibody, rabbit IgG biotinylated antibody (200-fold-diluted, Vector Laboratories Inc.) was used
For quantitation, four hippocampal sections (intervals of sections being 400 μm, four sections between −1.4 mm to −2.6 mm from bregma) were used for each individual. All of the BrdU positive cells present in a subgranular zone (SGZ) and a granule cell layer (GCL) of the hippocampal dentate gyrus were determined. SGZ was defined as an area with a depth of 20 μm (a size corresponding to two cells) just below the GCL (on the side of hylus). […] The GCL area in each hippocampal section was determined as a cresyl violet positive GCL area using an image analyzing software (NIH, image ver. 1.60).
A volume of GCL (GCLV) was determined as a GCL volume in left hemisphere between −1.4 mm to −2.6 mm from bregma (Cavalieri technique). The number of BrdU positive cells in GCLV was calculated by multiplying the number of BrdU positive cells in the four hippocampal sections by 10. […]
All of the quantitative values are indicated in mean ±standard error (n=8 for each group).

[2] = tested on: neural stem cells (BrdU positive cells) in hippocampal dentate gyrus; assay: Nerve regeneration in rat hippocampal dentate gyrus: BrdU labelling, immunohistochemical count and GCL volume; assay type: in vivo; settings: for GCL volume / Number of BrdU positive cells per hippocampus: SD rats, mean ± standard error, n=11; for Number of BrdU positive cells per hippocampus: vehicle 5490 ± 179, * p<0.05
Description: SD male SPF rats (6-week-old at the beginning of the experiments) purchased from Japan SLC, Inc. were bred under the same conditions as the mice in Example 2. Animals were subjected to experiments after acclimating for 5 days or longer following purchase.
BrdU (Sigma) for labeling neural stem cells was dissolved in PBS containing 0.014N HCl at a concentration of 10 mg/mL. BrdU was intraperitoneally administered at a dose of 50 mg/kg for three times (every 4 hours).
Injectable distilled water was orally administered at the same volume to animals in the vehicle control group.
The removed brain was sliced into sections as described in Example 2 for use in immunohistochemical studies.
Immunostaining of the brain tissues were carried out as described in Example 2.
For quantitation, four hippocampal sections (thickness of 40 μm, intervals of sections being 400 μm, four sections between −3.6 mm to −4.8 mm from bregma) were used for each individual. BrdU positive cells were counted in the same manner as Example 2. The GCL volume in each hippocampal section and the total number of BrdU positive cells in each hippocampal dentate gyrus were also determined as described in Example 2.
In Table 2, “*” indicates p<0.05, in comparison to the vehicle control group.

[3] = tested on: rat neural progenitor cells; assay: Intracellular calcium concentration of fetal rat neural progenitor cells (Fluo-3); assay type: cell-based
Description: Cerebrums were isolated from fetuses obtained from 14.5 days pregnant SD female rats (Japan SLC, Inc.). Cells were dispersed by pipetting the tissue in cold L-15 medium. These cells were cultured in a suspension containing 20 ng/ml human basic fibroblast growth factor (bFGF) in serum-free D-MEM/F-12 medium (supplemented with B-27, N2 (both from Invitrogen) and gentamicin beforehand). The rat neural progenitor cells are known to form a neurosphere in this medium. After 5 to 7 days, the neurosphere was collected and pipetted to isolate the rat neural progenitor cells, followed by passage culture using the medium described above.
The neural progenitor cells were isolated from the neurosphere that was collected a day before the experiment and suspended in the bFGF-free medium otherwise same as described above. After the number of cells was counted, 50,000 cells each were suspended in 100 μL of the medium described above and dispensed into a 96-flat bottom culture plate. Intracellular Ca^++ concentration was determined using a commercially available kit (Calcium Kit-Fluo-3, Dojindo laboratories) according to the attached instruction. To some of the wells, atropine (muscarine receptor antagonist) was added to 25 μmol/L and cultured at 37° C. for 30 minutes beforehand. […]

[4] = tested on: hippocampus of PTSD patients; settings: administration to PTSD patients, reported by Bremner 2002; cited from earlier work
[5] = 0.5 mg/kg orally once a day for 28 days
[6] = 2 mg/kg orally once a day for 28 days

## COc1cc2c(cc1OC)C(=O)C(CC1CCN(Cc3ccccc3)CC1)C2.Cl (stereo not drawn) [Donepezil, 1-benzyl-4-[(5,6-dimethoxy-1-indanone)-2-yl]methylpiperidine hydrochloride]
[1]; C57BL/6 mice, 1 mg/kg orally once a day for 14 days, mean ± standard error, n=8, vehicle 1091 ± 56, * p<0.05
  Number of BrdU positive cells per hippocampus: 1528 ± 137*
[1]; mice, 1 mg/kg orally, 14 days
  Effect on the volume of hippocampal nerve cell layer (GCL), in words: no effect
[1]; mice, 1 mg/kg orally, 14 days, statistically significant, hydrochloride, 1 mg/kg
  Number of BrdU positive cells compared to vehicle group (in words): higher; also recorded: increased
[2]; [5]
  GCL volume: 1.27 ± 0.04 mm^3
  Number of BrdU positive cells per hippocampus: 6880 ± 436*
[2]; [6]
  GCL volume: 1.35 ± 0.04 mm^3
  Number of BrdU positive cells per hippocampus: 6694 ± 357*
[2]; rats, 0.5 and 2 mg/kg orally, 28 days
  Influence on the volume of rat hippocampal nerve cell layer (GCL), in words: no influence
[2]; rats, each donepezil group (0.5 and 2 mg/kg orally, 28 days), statistically significant
  Number of BrdU positive cells per hippocampus compared to vehicle group (in words): higher

## CN1[C@@H]2CC[C@H]1C[C@@H](OC(=O)C(CO)c1ccccc1)C2 (stereo partly drawn) [atropine]
[3]; 25 μmol/L pretreatment for 30 minutes
  Antagonism of the acetylcholine/carbachol induced intracellular Ca++ increase: completely antagonized; also recorded: completely inhibited

## C[N+](C)(C)CCOC(N)=O [carbachol]
[3]; 25 μmol/L agonist, Fluo-3 fluorescence
  Change of intracellular Ca++ concentration on stimulation: increases

## Fc1ccc([C@@H]2CCNC[C@H]2COc2ccc3c(c2)OCO3)cc1 [paroxetine]
[4]
  Volume of hippocampus of PTSD patients: increase
